Data reported in patent publication US6833377B2, “Composition and method for potentiating drugs” (priority 2001, dated 2004).
Several values for one entry are separate records, joined by “and”; a condition that tells them apart may be missing. Equal entries are not always repeated. Where two headings read alike, the source gives them in different places.

Key:
[1] = tested on: rats with MPTP-depression; assay: Porsolt's test, rats with MPTP depression (MPTP 15 mg/kg IM); assay type: in vivo; conditions: drug alone
Experimental: (§1) Antidepressive effects was studied by Porsolt's test [Porsolt R. D., Anton G., Blavet N., Jalfre M. Eur. J. Pharmacol.(1978), 47(4):379-91]. For each rat under study, the total immobilization time was determined during 10 min of forced swimming in a glass vessel at a water temperature of 22° C. The animals were subdivided into three groups according to their immobilization time: highly-, medium- and low-active (immobilization time below 80 sec. 100-140 sec and above 150 sec, respectively).
(§2) I. N., Kryzhanovskii G. N. Biull. Eksp. Biol. Med. (1995) 120(8): 160-3] 30 min before testing at a dose of 15 mg/kg. […] (60 min before a repeated examination in Porsolt's test), and also to low-active rats 30 min. before a repeated study in Porsolt's test.
(§3) To determine the degree of potentiation of the effect of antidepressants, their minimal effective dose within the compositions, which caused a maximal antidepressive effect (immobilization time—below 80 s) in low-active rats and in rats with MPTP-depression was determined.

[2] = tested on: behavioral depression caused by a toxic dose of MPTP; assay: Forced swimming test after a toxic dose of MPTP (30 mg/kg IM); assay type: in vivo, rats
Experimental: In a forced swimming test, the ability of amitriptyline and its compositions to eliminate the effect of toxic doses of MPTP was studied. Single administration of high MPTP doses (30 mg/kg) causes acute suppression of motor activity (akinesis), catalepsy, and muscular rigidity. Antidepressants reduce behavioral depression caused by a single administration of toxic doses of MPTP. The behavioral depression was studied in a forced swimming test of a group of active rats after the administration of a toxic dose of MPTP (30 mg/kg IM). Swimming duration (maximal swimming duration—10 min) and the time of forced immobilization during the first 5 min of swimming (under the condition that swimming duration exceeds 5 min) was estimated in the forced swimming test 30 min after MPTP administration. Drugs were administered IM or IG 30 min before MPTP administration.
To estimate the potentiation of the effects of amitriptyline (its ability to reduce toxic effects of MPTP), the minimal effective dose of amitriptyline in the composition, which increased swimming time up to 9-10 min and reduced immobilization time during the first 5 min of swimming down to 20-30 sec was determined.

low-active rats = assay: Porsolt's test, low-active rats; assay type: in vivo; conditions: drug alone
Experimental: as §1, §2, §3

[3] = tested on: pentylenetetrazole seizures; conditions: diazepam alone, pentylenetetrazole 70 mg/kg
Experimental: (§4) For these studies, solutions of the composition of the invention were used, which. were prepared using distilled water immediately before administration. The solutions were administered either orally (IG), by a rigid metal probe into the cardiac section of the stomach at a total amount of 0.8 ml, or intramuscularly (IM) at an amount of 0.2 ml, 30 min before testing.
Anticonvulsive effects of drugs and their compositions was studied on the model of pentetrazole seizures [Parsons C. G . Quack G., Bresink I., Baran L., Przegalinski F., Kostowski. W., Krzascik P., Hartmann. S., Danysz W. Neuropharmacology (1995) 34(10):1239-1258).
To estimate the potentiation of diazepam effect, its minimal effective dose in the composition preventing clonico-tonic and clonic seizures in 80% of rats was determined.

reflex of tail flicking = assay: Tail-flick test (analgesic effect); assay type: in vivo, rats; conditions: drug alone
Experimental: as §4
The analgesic effect of the components was estimated by an extension of the latent period of the reflex of tail flicking in the “tail-flick” test [Woolf C. J., Barret G. D., Mitchel D., Myers R. A. (1977) Eur. J. Pharmacol. 45(3);311-314] and of the reflex of hind leg flicking in the hyperalgesia test [Coderre T. J., Melzack R. Brain Res. (1987) 404(1-2):95-106].
For the “tail-flick” test, hyperalgesic rats were selected (latent period of tail flicking on placing into water with a temperature of 51° C. was 3-4 sec).

phenaminic stereotypy [4] = assay: Phenaminic stereotypy (antipsychotic effect of haloperidol); assay type: in vivo, rats; conditions: haloperidol alone, phenamine 10 mg/kg IM
Experimental: (§5) Antipsychotic effect of neuroleptics was studied using the model of behavioral toxicity “MK-toxicity” caused by a blocker of NMDA receptors MK-801 (Lapin T. P., Rogawski M. A. Behav. Brain Res. (1995) 70(2):145-151) and a model of phenaminic stereotypy caused by phenamine (Kuczenski R., Schmidt D, Leith N. Brain Res. (1977), 126(1):117-129).
(§6) The minimal effective dose of the neuroleptic haloperidol necessary to completely prevent the development of “MK-toxicity” (MK-801 at a dose of 0.4 mg/kg IM) and phenaminic stereotypy (phenamine at a dose of 10 mg/kg IM) in 80% of the rats was calculated. To estimate the potentiation of the antipsychotic effect of haloperidol, the minimal effective dose of haloperidol in compositions, which completely prevents the development of MK-toxicity and phenaminic stereotypy in rats, was determined.

MK-toxicity = MK-toxicity (behavioral toxicity caused by MK-801); assay type: in vivo, rats; conditions: haloperidol alone, at this dose only ataxia eliminated, MK-toxicity only partially eliminated
Experimental: as §5, §6

[5] = tested on: catalepsy caused by haloperidol; assay: Haloperidol catalepsy (inclined grid); assay type: in vivo, rats; conditions: for Minimal effective dose of memantine eliminating catalepsy (immobilization time on an inclined grid below 40 seconds), haloperidol 1 mg/kg / Minimal effective dose of memantine eliminating catalepsy (immobilization time on an inclined grid below 40 seconds), haloperidol 3 mg/kg: memantine alone; for Minimal effective dose of memantine eliminating catalepsy (immobilization time on an inclined grid below 40 seconds), haloperidol 3 mg/kg: catalepsy only partially eliminated at this dose (immobilization time 60-70 seconds)
Experimental: Haloperidol catalepsy is a test for selecting anti-parkinson agents [Campbell A., Baldessarini R. J. Cremens M. C. Neuropharmacology (1988), 27(11):1197-9; Ossowska K. J. Neural. Transm. Park. Dis. Dement. Sect. (1994) 8(1-2):39-71]. Catalepsy degree was estimated by the immobilization time (in sec) of a rat placed on a coarse-mesh grid at an angle of 45° during a 3-minute exposition [Campbell A., Baldessarini R. J., Cremens M. C. Neuropharmacology (1988) 27(11):1197-9 ] 30, 60, 90 and 120 minutes after haloperidol administration. Maximal catalepsy was attained in 40-60 minutes after haloperidol administration (immobilization time on the grid was 140-180 sec) and lasted from 2 to 6 hours depending on the dose of haloperidol (1 or 3 mg/kg). The minimal effective dose of the anti-parkinson agent memantine causing a maximal anticataleptic effect (immobilization time on an inclined grid less than 40 sec) 1 hour after haloperidol administration at a dose of 1 and 3 mg/kg was calculated.
To estimate the potentiation effect of memantine, the minimal effective dose of memantine in the composition causing a maximal anticataleptic effect was determined.

phenaminic stereotypy [6] = assay: Potentiation of phenaminic stereotypy (psychostimulant effect of phenamine); assay type: in vivo, rats; conditions: phenamine + distilled water
Experimental: The potentiation of the effect of psychostimulants was studied using the model of phenaminic stereotypy [Kuczenski R., Schmidt D., Leith N. Brain Res. (1977), 126(1):117-29]. Phenamine at a dose of 10 mg/kg IM, or 20 mg/kg IG, causes a marked behavioral stereotypy. To estimate the potentiation effect of phenamine, a phenamine dose in the IM or IG introduced composition was determined, which causes the same stereotypy as phenamine alone at a dose of 10 mg/kg, IM or 20 mg/kg, IG.

[7] = IG, amitriptyline 30 mg/kg, alone or with phenylephrine 0.004 mg/kg
[8] = IM, amitriptyline 30 mg/kg, alone or with phenylephrine 0.002 mg/kg (text b94: 0.003)

## CN(C)CCC=C1c2ccccc2CCc2ccccc21 [Amitriptyline, amitriptyline]
[1]; IG
  Minimal effective dose of the antidepressant causing a maximal antidepressive effect (immobilization time below 80 sec), highly active rats with MPTP depression: 2.5 ± 0.5 mg/kg
[1]; IG, listed as amitriptyline
  Minimal effective dose of the antidepressant causing a maximal antidepressive effect (immobilization time below 80 sec), highly active rats with MPTP depression: 2.5 mg/kg
[1]; IM
  Minimal effective dose of the antidepressant causing a maximal antidepressive effect (immobilization time below 80 sec), highly active rats with MPTP depression: 7.0 ± 0.8 mg/kg
[1]; IM, listed as amitriptyline
  Minimal effective dose of the antidepressant causing a maximal antidepressive effect (immobilization time below 80 sec), highly active rats with MPTP depression: 7.2 mg/kg
[2]; [7]
  Duration of forced swimming until drowning 30 min after MPTP 30 mg/kg (maximal recorded time 600 seconds): 340 s and 340 ± 37 s
  Immobilization time during the first 5 minutes of forced swimming, 30 min after MPTP 30 mg/kg: 78 s and 78 ± 8.5 s
[2]; IM, amitriptyline 20 mg/kg
  Duration of forced swimming until drowning 30 min after MPTP 30 mg/kg (maximal recorded time 600 seconds): 220 ± 25 s
[2]; [8]
  Duration of forced swimming until drowning 30 min after MPTP 30 mg/kg (maximal recorded time 600 seconds): 410 s and 410 ± 46 s
  Immobilization time during the first 5 minutes of forced swimming, 30 min after MPTP 30 mg/kg: 61 s and 61 ± 6.3 s
low-active rats; IG
  Minimal effective dose of the antidepressant causing a maximal antidepressive effect (immobilization time below 80 sec), low-active rats: 2.0 ± 0.24 mg/kg
low-active rats; IG, listed as amitriptyline
  Minimal effective dose of the antidepressant causing a maximal antidepressive effect (immobilization time below 80 sec), low-active rats: 2 mg/kg
low-active rats; IM
  Minimal effective dose of the antidepressant causing a maximal antidepressive effect (immobilization time below 80 sec), low-active rats: 5.2 ± 0.6 mg/kg
low-active rats; IM, listed as amitriptyline
  Minimal effective dose of the antidepressant causing a maximal antidepressive effect (immobilization time below 80 sec), low-active rats: 5.0 mg/kg

## CN1C(=O)CN=C(c2ccccc2)c2cc(Cl)ccc21 [Diazepam]
[3]; IG
  Minimal dose of diazepam preventing clonico-tonic pentylenetetrazol seizures in 80% of rats: 2.5 mg/kg and 2.5 ± 0.3 mg/kg
[3]; IM
  Minimal dose of diazepam preventing clonico-tonic pentylenetetrazol seizures in 80% of rats: 6.7 mg/kg and 6.7 ± 0.7 mg/kg

## Cc1c(N(C)CS(=O)(=O)[O-])c(=O)n(-c2ccccc2)n1C.[Na+] [Dipyrone]
Reflex of tail flicking; IG
  Minimal effective dose of the analgesic causing maximal analgesia in tail-flick test (latent period of tail flicking reflex more than 30 sec): 20 mg/kg and 20 ± 2.3 mg/kg

## CNCCC(Oc1ccc(C(F)(F)F)cc1)c1ccccc1 (centres unmarked) [Fluoxetine]
[1]; IM
  Minimal effective dose of the antidepressant causing a maximal antidepressive effect (immobilization time below 80 sec), highly active rats with MPTP depression: 16.2 mg/kg and 16 ± 2.1 mg/kg
low-active rats; IG
  Minimal effective dose of the antidepressant causing a maximal antidepressive effect (immobilization time below 80 sec), low-active rats: 5.5 mg/kg and 5.5 ± 0.7 mg/kg
low-active rats; IM
  Minimal effective dose of the antidepressant causing a maximal antidepressive effect (immobilization time below 80 sec), low-active rats: 10.6 mg/kg and 10.6 ± 1.2 mg/kg

## O=C(CCCN1CCC(O)(c2ccc(Cl)cc2)CC1)c1ccc(F)cc1 [Haloperidol, haloperidol]
Phenaminic stereotypy [4]; IG
  Minimal effective dose of haloperidol completely preventing phenaminic stereotypy in 80% of rats: 0.18 ± 0.022 mg/kg
Phenaminic stereotypy [4]; IG, listed as haloperidol
  Minimal effective dose of haloperidol completely preventing phenaminic stereotypy in 80% of rats: 0.18 mg/kg
Phenaminic stereotypy [4]; IM
  Minimal effective dose of haloperidol completely preventing phenaminic stereotypy in 80% of rats: 0.15 ± 0.017 mg/kg
Phenaminic stereotypy [4]; IM, listed as haloperidol
  Minimal effective dose of haloperidol completely preventing phenaminic stereotypy in 80% of rats: 0.15 mg/kg
MK-toxicity; IG
  Minimal effective dose of haloperidol completely preventing MK-toxicity (MK-801 0.4 mg/kg IM): > 1 mg/kg
MK-toxicity; IG, listed as haloperidol
  Minimal effective dose of haloperidol completely preventing MK-toxicity (MK-801 0.4 mg/kg IM): > 1 mg/kg
MK-toxicity; IM
  Minimal effective dose of haloperidol completely preventing MK-toxicity (MK-801 0.4 mg/kg IM): > 1 mg/kg
MK-toxicity; IM, listed as haloperidol
  Minimal effective dose of haloperidol completely preventing MK-toxicity (MK-801 0.4 mg/kg IM): > 1 mg/kg

## CC12CC3CC(C)(C1)CC(N)(C3)C2 [Memantine, memantine]
[5]; IG
  Minimal effective dose of memantine eliminating catalepsy (immobilization time on an inclined grid below 40 seconds), haloperidol 1 mg/kg: 11.5 mg/kg and 11.5 ± 1.2 mg/kg
  Minimal effective dose of memantine eliminating catalepsy (immobilization time on an inclined grid below 40 seconds), haloperidol 3 mg/kg: > 16.0 mg/kg
[5]; IG, listed as memantine
  Minimal effective dose of memantine eliminating catalepsy (immobilization time on an inclined grid below 40 seconds), haloperidol 3 mg/kg: > 16 mg/kg
[5]; IM
  Minimal effective dose of memantine eliminating catalepsy (immobilization time on an inclined grid below 40 seconds), haloperidol 1 mg/kg: 7.5 ± 0.7 mg/kg
  Minimal effective dose of memantine eliminating catalepsy (immobilization time on an inclined grid below 40 seconds), haloperidol 3 mg/kg: > 15.0 mg/kg
[5]; IM, listed as memantine
  Minimal effective dose of memantine eliminating catalepsy (immobilization time on an inclined grid below 40 seconds), haloperidol 3 mg/kg: > 15 mg/kg
  Minimal effective dose of memantine eliminating catalepsy (immobilization time on an inclined grid below 40 seconds), haloperidol 1 mg/kg: 7.5 mg/kg
[5]; memantine 15 mg/kg IM
  Immobilization time of rats on an inclined grid, catalepsy caused by haloperidol 3 mg/kg: 60 to 70 s
[5]; memantine 16 mg/kg IG
  Immobilization time of rats on an inclined grid, catalepsy caused by haloperidol 3 mg/kg: 60 to 70 s

## CN1CC[C@]23c4c5ccc(O)c4O[C@H]2[C@@H](O)C=C[C@H]3[C@H]1C5 [Morphine, morphine]
Reflex of tail flicking; IG
  Minimal effective dose of the analgesic causing maximal analgesia in tail-flick test (latent period of tail flicking reflex more than 30 sec): 3 ± 0.35 mg/kg
Reflex of tail flicking; IG, listed as morphine
  Minimal effective dose of the analgesic causing maximal analgesia in tail-flick test (latent period of tail flicking reflex more than 30 sec): 3 mg/kg
Reflex of tail flicking; IM
  Minimal effective dose of the analgesic causing maximal analgesia in tail-flick test (latent period of tail flicking reflex more than 30 sec): 3.0 ± 0.37 mg/kg
Reflex of tail flicking; IM, listed as morphine
  Minimal effective dose of the analgesic causing maximal analgesia in tail-flick test (latent period of tail flicking reflex more than 30 sec): 3 mg/kg

## CC(N)Cc1ccccc1 (centres unmarked) [Phenamine, phenamine]
Phenaminic stereotypy [6]; IG
  Dose of phenamine causing the same behavioral stereotypy as phenamine 10 mg/kg IM: 20.2 ± 2.3 mg/kg
Phenaminic stereotypy [6]; IG, listed as phenamine
  Dose of phenamine causing the same behavioral stereotypy as phenamine 10 mg/kg IM: 20 mg/kg
Phenaminic stereotypy [6]; IM
  Dose of phenamine causing the same behavioral stereotypy as phenamine 10 mg/kg IM: 10.0 ± 1.1 mg/kg
Phenaminic stereotypy [6]; IM, listed as phenamine
  Dose of phenamine causing the same behavioral stereotypy as phenamine 10 mg/kg IM: 10 mg/kg
